# Assay results as given in patent US4435404A, “Carbostyril derivatives” (priority 1980, dated 1984).
# Tests used:
# bastard dog = experiment: Increasing effect of cerebral blood flow; assay type: in vivo; settings: profunda femoris vein
# Procedure: Thus, a bastard dog (male, 12-20 kg of body weight) was fixed in a prone (position) and was anesthetized with 20 mg/kg of pentobarbital sodium and made forced breathing to kept the frequency of respiration at 20 times/minutes. Then, the skull was bared and the surface bone was removed to expose the venous sinus by using grinder and the venous blood was took out from the venas which was cannulizated. The amount of venous blood flow was measured by using an electromagnetic blood flow meter and next measured by using drop-counter by measuring the number of drops of blood per 10 seconds.
# The increasing effect of cerebral blood flow was calculated by comparing the number of blood drops in 30 seconds at the peak of increasement shown before and after the administration of compound to be tested. The each of compounds to be tested was dissolved in dimethylformamide and diluted with physiological saline solution and administered through a cannule being inserted into the profunda femoris vein.
# [1] = tested on: arterial papillary muscle; experiment: Positive inotropic effect, blood-perfused arterial papillary muscle; parameters: species or system dog; settings: into septal artery
# Procedure: Positive inotropic effects of the novel carbostyril derivatives of the present invention were tested according to a method described by M. Endoh and K. Hashimoto, in "American Journal of Physiology", Vol. 218, No. 5, May, 1970, pages 1459-1463 as follows:
# Adult bastard dogs of both sexes, weighing 8-12 kg, were anesthetized with pentobarbital-Na at a rate of 30 mg/kg by intraveneous administration. After another intraveneous administration of sodium heparin, 1,000 μ/kg, the test dog was sacrificed by blood letting. The heart of the dog was excised and immediately plunged into Locke's solution, then the arterial papillary muscle was excised out with interventicular septum. The septal artery was carefully isolated and cannulated with a polyethylene cannula and was ligated with thread. Septal arteries those of connected to other than the arterial papillary muscle were ligated with thread. Next, the donor adult bastard dogs, weighing 18-27 kg, were anesthetized with pentabarbital-Na (30 mg/kg, intraveneous injection), and further treated with intravenous administration of sodium heparin (1,000 μ/kg). The arterial papillary muscle was perfused through the septal artery being cannulated with the polyethylene cannula with the blood conducted from the carotid artery of the donor dog by aid of Peristaric pump. The perfusion pressure was maintained at 100 mmHg constantly. Then the muscle was electrically stimulated by an electronic stimulator through bipolar electrodes in contact with the interventicular septum. The strength of stimulation was 2 X (the minimum value for appearing the action), frequency 2 Hz, pulse duration 2 msec.
# The isometric contraction generated was measured through a force-displacement transducer. The amount of blood flow in the coronary arteries was measured by determining the amount of the blood flow conducted to the septal artery by electromagnetic flow meter. All the data were recorded on an ink-writing recorder.
# A solution containing a compound to be tested was injected into the septal artery through the rubber tube connected close to the shunk of the polyethylene cannula, in an amount of 10-30 μl.
# The results obtained is shown in Table 4, in which the increasement (%) of contraction is indicated as the ratio of the contractions before and after the administration (injection) of the solution containing the test compound.
# [2] = tested on: Deoxycorticosteroneacetate (DOCA)/saline hypertension rats (DHR); experiment: Hypotensive effect, Tail-cuff method, DHR; assay type: in vivo, rat; settings: 30 mg/kg oral, mean value ± standard deviation
# Procedure: (§1) Hypotensive effect of the compounds were measured by determining the maximum blood pressure of the test animals according to a procedure of Tail-cuff method.
# (§2) Test animals used were the following two types.
# (2) Deoxycorticosteroneacetate (DOCA)/saline hypertension rats (DHR)
# Wistar strain male rats having 150-170 g of body weight, were anesthetized with ether and the left-side kidney was enucleated. One (1) week after the operation, 10 mg/kg of DOCA was injected subcutaneously once a week and 1% NaCl aqueous solution was given as drinking water. Five (5) weeks after the operation, rats having the maximum blood pressure over 150 mmHg were selected and used as test animals which were abstained from food for overnight.
# (§3) Each of compounds to be tested were administered orally and the blood pressure was measured before the administration and 1, 2, 4, 6 and 8 hours after the administration. The blood pressure was measured by using Recorder (Rectihoriz type 8S, San-ei Instrument) and Electrosthygmomanometer PE-300 (Macro Bio-systems, Houston, Tex.).
# [3] = tested on: Gold blatt type renoprival hypertension rats (RHR); experiment: Hypotensive effect, Tail-cuff method, RHR; assay type: in vivo, rat; settings: 30 mg/kg oral, mean value ± standard deviation
# Procedure: as §1, §2
# (1) Gold blatt type renoprival hypertension rats (RHR)
# Wistar strain male rats having, 160-180 g of body weight, were anesthetized with ether and the left-side renal artery was pluged with a silver clip having 0.2 mm inside diameter, while the right-side renal artery was kept as it was without operation. Four (4) weeks after the operation, rats having the maximum blood pressure over 150 mmHg were selected and used as test animals which were abstained from food for overnight.
# as §3
substance,measurement,setting,value
"6-{3-[N-(2-Hydroxybutyl)-N-cyclohexylaminocarbonyl]propoxy}-3,4-dihydrocarbostyril [Example 4]",Increasing effect of cerebral blood flow,bastard dog; dosage 300 μg/kg,64.2%
same,Increasing of inotropic,[1]; dosage 10 n mol,10%
same,Increasing of inotropic,[1]; dosage 100 n mol,62.5%
"6-{3-[N-(2-hydroxyethyl)-N-cyclohexylaminocarbonyl]propoxy}-3,4-dihydrocarbostyril [Example 2]",Maximum blood pressure after the administration (difference),[2]; 1 hour,-63.0 ± 9.1 mmHg
same,Maximum blood pressure after the administration (difference),[2]; 2 hours,-30.4 ± 9.9 mmHg
same,Maximum blood pressure after the administration (difference),[2]; 4 hours,-42.8 ± 5.5 mmHg
same,Maximum blood pressure after the administration (difference),[2]; 6 hours,-24.1 ± 6.8 mmHg
same,Maximum blood pressure after the administration (difference),[3]; 1 hour,-4.8 ± 6.4 mmHg
same,Maximum blood pressure after the administration (difference),[3]; 2 hours,-4.8 ± 3.7 mmHg
same,Maximum blood pressure after the administration (difference),[3]; 4 hours,-3.2 ± 4.0 mmHg
same,Increasing of inotropic,[1]; dosage 10 n mol,38.9%
same,Increasing of inotropic,[1]; dosage 30 n mol,94.3%
"6-{4-[N-(2-Hydroxyethyl)-N-cyclohexylaminocarbonyl]butoxy}-3,4-dihydrocarbostyril [Example 9]",Maximum blood pressure after the administration (difference),[2]; 1 hour,-51.2 ± 14.0 mmHg
same,Maximum blood pressure after the administration (difference),[2]; 2 hours,-44.6 ± 14.6 mmHg
same,Maximum blood pressure after the administration (difference),[2]; 4 hours,-42.4 ± 13.9 mmHg
same,Maximum blood pressure after the administration (difference),[2]; 6 hours,-34.0 ± 10.2 mmHg
same,Maximum blood pressure after the administration (difference),[3]; 1 hour,-10.1 ± 6.2 mmHg
same,Maximum blood pressure after the administration (difference),[3]; 2 hours,-11.6 ± 9.6 mmHg
same,Maximum blood pressure after the administration (difference),[3]; 4 hours,-14.2 ± 5.0 mmHg
same,Maximum blood pressure after the administration (difference),[3]; 6 hours,-8.0 ± 2.6 mmHg
same,Increasing effect of cerebral blood flow,bastard dog; dosage 100 μg/kg,85.3%
"6-{4-[N-(2-Hydroxypropyl)-N-cyclohexylaminocarbonyl]butoxy}-3,4-dihydrocarbostyril [Example 8]",Increasing of inotropic,[1]; dosage 30 n mol,38.7%
same,Increasing of inotropic,[1]; dosage 100 n mol,89.4%
"6-{5-[N-(2-Hydroxybutyl)-N-cyclohexylaminocarbonyl]pentyloxy}-3,4-dihydrocarbostyril [Example 16]",Maximum blood pressure after the administration (difference),[2]; 1 hour,-20.2 ± 8.0 mmHg
same,Maximum blood pressure after the administration (difference),[2]; 2 hours,-21.2 ± 9.7 mmHg
same,Maximum blood pressure after the administration (difference),[2]; 4 hours,-16.2 ± 6.8 mmHg
same,Maximum blood pressure after the administration (difference),[2]; 6 hours,-6.5 ± 8.5 mmHg
same,Increasing effect of cerebral blood flow,bastard dog; dosage 100 μg/kg,63.2%
"7-{3-[N-(3-Hydroxypropyl)-N-cyclohexylaminocarbonyl]propoxy}-3,4-dihydrocarbostyril [Example 17]",Maximum blood pressure after the administration (difference),[2]; 1 hour,-2.5 ± 4.0 mmHg
same,Maximum blood pressure after the administration (difference),[2]; 2 hours,-8.7 ± 3.3 mmHg
same,Maximum blood pressure after the administration (difference),[2]; 4 hours,-9.3 ± 8.6 mmHg
same,Maximum blood pressure after the administration (difference),[3]; 1 hour,-25.5 ± 7.0 mmHg
same,Maximum blood pressure after the administration (difference),[3]; 2 hours,-23.3 ± 9.6 mmHg
same,Maximum blood pressure after the administration (difference),[3]; 4 hours,-27.0 ± 14.1 mmHg
same,Maximum blood pressure after the administration (difference),[3]; 6 hours,-33.7 ± 10.2 mmHg
same,Maximum blood pressure after the administration (difference),[3]; 8 hours,-29.8 ± 9.7 mmHg
same,Increasing effect of cerebral blood flow,bastard dog; dosage 100 μg/kg,34.4%
